According to patent US20250338846A1, “COMPOSITIONS HAVING PESTICIDAL UTILITY AND PROCESSES RELATED THERETO” (CORTEVA AGRISCIENCE, LLC, priority 2022, published 2025):
Where “and” joins values, the source holds several entries; their conditions need not be identical. Equal values may be shown once.

Key:
[1] = test system: Cotton Aphid (Aphis gossypii, APHIGO); assay: Bioassay 7: Cotton Aphid, foliar spray on infested cotton seedlings, live aphids counted three days after treatment; assay type: in vivo
[2] = test system: Diamondback Moth (Plutella xylostella, PLUTMA); assay: Bioassay 9: Diamondback Moth, leaves of track-sprayed cabbage plants, mortality and feeding damage scored; assay type: in vivo; conditions: F1 alone 40 (10^-5) Wt %

CCN(C(=O)CCS(C)(=O)=O)c1sc(-c2cccnc2)nc1Cl [Formula F1, N-(4-chloro-2-(pyridin-3-yl)thiazol-5-yl)-N-ethyl-3-(methylsulfonyl)propanamide]
Average % Control F1 ([1]; F1 alone 0.1 (10^-5) Wt %): 24.39% | Average % Control F1 ([1]; F1 alone 0.2 (10^-5) Wt %): 5.79% | Average % Control F1 ([1]; F1 alone 0.78 (10^-5) Wt %): 25.58% | Average % Control F1 ([1]; F1 alone 0.8 (10^-5) Wt %): 24.39% and 47.56% | Average % Control F1 ([1]; F1 alone 2.5 (10^-5) Wt %): 29.04% | Average % Control F1 ([2]; Acute mortality): 6.82% | Average % Control F1 ([2]; Feeding damage control): 8.53%
